In general, pEC50 refers to the negative decadic logarithm of the EC50, by convention in mol/L. A high value points to a low EC50.

pEC50: −log10 of the molar value. Bounds are passed on as bounds.

For this assay, the target named is Ras-related protein Rab-2A (Canis lupus familiaris, UniProt P61105). Kind of assay: Rab2 wildtype GTP-binding inhibitors, SAR follow-up, biochemical, pyrazoline series, Bodipy-FL-GTP, flow cytometry, multiplex (AID 2045).
Sequence of Ras-related protein Rab-2A (P61105 whole entry): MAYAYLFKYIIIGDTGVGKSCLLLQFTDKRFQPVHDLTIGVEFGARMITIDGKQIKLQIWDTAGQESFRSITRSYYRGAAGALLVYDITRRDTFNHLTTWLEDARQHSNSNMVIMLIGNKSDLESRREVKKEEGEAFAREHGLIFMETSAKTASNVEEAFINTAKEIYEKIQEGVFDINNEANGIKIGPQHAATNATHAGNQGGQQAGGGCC

Compound `COc1ccc(C2CC(c3ccc(Cl)cc3)=NN2c2ccccc2)cc1OC` (stereo not drawn) [UNM-0000305858] had a pEC50 below 4.52.

As for `NS(=O)(=O)c1ccc(N2N=C(c3ccccc3)CC2c2ccc(Cl)cc2)cc1` (stereo not drawn) [4-[3-(4-chlorophenyl)-5-phenyl-3,4-dihydropyrazol-2-yl]benzenesulfonamide], the pEC50 was below 4.52.

`O=S(=O)(c1ccc(N2N=C(c3ccccc3)CC2c2ccccc2)cc1)C(F)F` (stereo not drawn) gave a pEC50 below 4.52.

`COc1ccc(C2=NN(c3ccc(Cl)c(Cl)c3)C(c3ccc(OC)cc3)C2)cc1` (stereo not drawn) [2-(3,4-dichlorophenyl)-3,5-bis(4-methoxyphenyl)-3,4-dihydropyrazole] showed a pEC50 below 4.52.

The compound `CC(=O)Oc1ccc(C2=NN(c3ccccc3)C(c3ccccc3)C2)cc1` (stereo not drawn) had a pEC50 below 4.52.

Consider `COc1ccc(C2CC(c3ccccc3)=NN2c2ccc(S(N)(=O)=O)cc2)cc1OC` (stereo not drawn) [UNM-0000305823], for which the pEC50 is below 4.52.

Compound `COc1ccc(C2CC(c3ccccc3OC)=NN2c2ccc(S(N)(=O)=O)cc2)cc1` (stereo not drawn) showed a pEC50 below 4.52.

As to `COc1ccc(C2CC(c3ccc(F)cc3)=NN2c2ccccc2)cc1OC` (stereo not drawn) [UNM-0000305864], the pEC50 is below 4.52.

`COc1ccc(C2CC(c3ccc(N(C)C)cc3)=NN2c2ccc(S(N)(=O)=O)cc2)cc1` (stereo not drawn) [KUC103422N] gave a pEC50 below 4.52.

Regarding `NS(=O)(=O)c1ccc(N2N=C(c3ccccc3)CC2c2cccc(Cl)c2)cc1` (stereo not drawn) [UNM-0000306161], the pEC50 was below 4.52.

Compound `COc1ccc(-c2cc(-c3ccccc3)nn2-c2ccc(S(N)(=O)=O)cc2)cc1` [4-[5-(4-methoxyphenyl)-3-phenylpyrazol-1-yl]benzenesulfonamide] had a pEC50 below 4.52.

For the compound `Cc1cccc(N2N=C(c3ccccc3)CC2c2ccccc2)c1` (stereo not drawn) [UNM-0000305835], the pEC50 is below 4.52.

Compound `COc1ccc(C2CC(c3cccnc3)=NN2c2ccc(S(N)(=O)=O)cc2)cc1` (stereo not drawn) showed a pEC50 below 4.52.

Compound `COc1ccc(C2CC(c3ccsc3)=NN2c2ccc(S(N)(=O)=O)cc2)cc1` (stereo not drawn) [4-[3-(4-methoxyphenyl)-5-thiophen-3-yl-3,4-dihydropyrazol-2-yl]benzenesulfonamide] gave a pEC50 below 4.52.

`COc1ccc(C2CC(c3cccc(N(C)C)c3)=NN2c2ccc(S(N)(=O)=O)cc2)cc1` (stereo not drawn) had a pEC50 below 4.52.

Compound `COc1ccc(C2CC(c3ccc(Br)cc3)=NN2c2ccccc2Cl)cc1` (stereo not drawn) [UNM-0000305832] showed a pEC50 below 4.52.

Regarding `O=[N+]([O-])c1ccc([N+]2=N[C-](c3ccccc3)CC2c2ccc(O)cc2)cc1` (stereo not drawn) [UNM-0000305838], the pEC50 is below 4.52.

On to `COc1ccc(C2CC(c3cccc(C)c3)=NN2c2ccc(S(N)(=O)=O)cc2)cc1` (stereo not drawn) [UNM-0000306153], for which the pEC50 is below 4.52.

Turning to `Clc1cccc(N2N=C(c3ccccc3)CC2c2ccccc2)c1` (stereo not drawn), the pEC50 is below 4.52.

The compound `COc1ccc(C2=NN(c3cccc(F)c3)C(c3ccc(Cl)cc3)C2)cc1` (stereo not drawn) [3-(4-chlorophenyl)-2-(3-fluorophenyl)-5-(4-methoxyphenyl)-3,4-dihydropyrazole] showed a pEC50 below 4.52.

In the case of `COc1ccc(C2CC(c3cccc(F)c3)=NN2c2ccc(S(N)(=O)=O)cc2)cc1` (stereo not drawn) [4-[5-(3-fluorophenyl)-3-(4-methoxyphenyl)-3,4-dihydropyrazol-2-yl]benzenesulfonamide], the pEC50 is below 4.52.

For `COc1ccc(C2CC(c3ccccc3)=NN2c2ccc(C(N)=O)cc2)cc1` (stereo not drawn) [UNM-0000305870], the pEC50 is below 4.52.

The compound `COc1ccc(C2CC(c3ccccc3Br)=NN2c2ccc(S(N)(=O)=O)cc2)cc1` (stereo not drawn) [UNM-0000306112] gave a pEC50 below 4.52.

Consider `Cc1onc(-c2ccccc2)c1-c1ccc(S(N)(=O)=O)cc1`, for which the pEC50 was below 4.52.

As for `COc1cccc(C2CC(c3ccccc3)=NN2c2ccc(S(N)(=O)=O)cc2)c1` (stereo not drawn) [4-[3-(3-methoxyphenyl)-5-phenyl-3,4-dihydropyrazol-2-yl]benzenesulfonamide], the pEC50 was below 4.52.

Compound `COc1ccccc1C1CC(c2ccccc2)=NN1c1ccccc1` (stereo not drawn) gave a pEC50 below 4.52.

`Fc1ccc(C2=NN(c3cccc(Br)c3)C(c3ccccc3)C2)cc1` (stereo not drawn) [2-(3-bromophenyl)-5-(4-fluorophenyl)-3-phenyl-3,4-dihydropyrazole] showed a pEC50 below 4.52.

Turning to `COc1ccc(C2CC(c3ccccc3C(F)(F)F)=NN2c2ccc(S(N)(=O)=O)cc2)cc1` (stereo not drawn) [KUC103474N], the negative-log EC50 (pEC50) was below 4.52.

(Values after BindingDB's records for doi:10.7270/Q2ZW1JC6 (Nmmlsc, 2016).)
